Experimental data as given in BigSolDB 2.1.

CC1(C)COP(=O)(Oc2cc(OP3(=O)OCC(C)(C)CO3)cc(OP3(=O)OCC(C)(C)CO3)c2)OC1
solubility (mole fraction)
Details | in 1,4-dioxane | in THF | in acetone | in acetonitrile | in chloroform | in dichloromethane | in ethanol | in methanol
288.15 K | 8.73e-05 | 0.000132 | 0.000453 | 0.000941 | 0.00551 | 0.00512 | 7.83e-05 | 0.000423
293.15 K | 9.57e-05 | 0.000138 | 0.000502 | 0.00109 | 0.00634 | 0.00589 | 9.43e-05 | 0.000496
298.15 K | 0.00011 | 0.000144 | 0.000568 | 0.00136 | 0.00713 | 0.00673 | 0.000111 | 0.000568
303.15 K | 0.000127 | 0.000149 | 0.000638 | 0.00158 | 0.00802 | 0.00779 | 0.00013 | 0.000648
308.15 K | 0.000139 | 0.000154 | 0.000718 | 0.00195 | 0.00921 | 0.00891 | 0.000156 | 0.000748
313.15 K | 0.000153 | 0.000158 | 0.000805 | 0.00238 | 0.0106 | – | 0.000192 | 0.000874
318.15 K | 0.000171 | 0.000162 | 0.000924 | 0.00289 | 0.0121 | – | 0.000225 | 0.000975
